In BindingDB's records for PubMed 11082453 (Abbott Laboratories, 2000):

Legend:
Pro-neuropeptide Y = Pro-neuropeptide Y (Rattus norvegicus, UniProt P07808)
Vasopressin V2 receptor = Vasopressin V2 receptor (Rattus norvegicus, UniProt Q00788)
[1] = target: Muscarinic acetylcholine receptor M4 (Rattus norvegicus, UniProt P08485)
[2] = target: Gamma-aminobutyric acid (GABA) B receptor 1 (Rattus norvegicus, UniProt Q6MFX8)
[3] = target: Beta-1 adrenergic receptor (Rattus norvegicus, UniProt P18090)
[4] = target: Glutamate receptor ionotropic, kainate 1 (Rattus norvegicus, UniProt P22756)
D(4) dopamine receptor = D(4) dopamine receptor (Rattus norvegicus, UniProt P30729)
Interleukin-1 alpha = Interleukin-1 alpha (Rattus norvegicus, UniProt P16598)
Sequence of Interleukin-1 alpha (P16598 115-270 limits assumed): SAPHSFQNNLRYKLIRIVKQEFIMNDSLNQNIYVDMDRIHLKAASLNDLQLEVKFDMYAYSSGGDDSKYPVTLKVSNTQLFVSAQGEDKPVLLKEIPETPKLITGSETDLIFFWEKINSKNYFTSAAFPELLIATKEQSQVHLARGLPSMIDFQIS

[5] = target: Voltage-dependent L-type calcium channel subunit alpha-1C (Rattus norvegicus, UniProt P22002)
[6] = target: Prostaglandin G/H synthase 1 (Rattus norvegicus, UniProt Q63921)
[7] = target: Calcium release-activated calcium channel protein 1 (Homo sapiens, UniProt Q96D31)
Galanin peptides = Galanin peptides (Rattus norvegicus, UniProt P10683)
[8] = target: Bombesin receptor subtype-3 (Rattus norvegicus, UniProt Q8K418)
Sequence of Bombesin receptor subtype-3 (Q8K418 whole entry): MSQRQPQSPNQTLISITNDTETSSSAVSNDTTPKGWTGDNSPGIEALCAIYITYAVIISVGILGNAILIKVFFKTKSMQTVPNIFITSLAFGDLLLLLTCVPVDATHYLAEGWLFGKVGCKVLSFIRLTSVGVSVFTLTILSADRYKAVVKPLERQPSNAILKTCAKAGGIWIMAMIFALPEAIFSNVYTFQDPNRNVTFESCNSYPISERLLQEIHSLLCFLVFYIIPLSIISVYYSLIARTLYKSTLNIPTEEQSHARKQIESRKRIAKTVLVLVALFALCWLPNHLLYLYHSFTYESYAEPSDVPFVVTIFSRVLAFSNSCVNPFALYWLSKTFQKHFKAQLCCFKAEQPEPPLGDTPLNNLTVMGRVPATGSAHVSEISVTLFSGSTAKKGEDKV

Prostacyclin receptor = Prostacyclin receptor (Rattus norvegicus, UniProt P43253)
Thromboxane A2 receptor = Thromboxane A2 receptor (Rattus norvegicus, UniProt P34978)
[9] = target: Gastrin/cholecystokinin type B receptor (Rattus norvegicus, UniProt P30553)
[10] = target: 5-hydroxytryptamine receptor 6 (Rattus norvegicus, UniProt P31388)
Sequence of 5-hydroxytryptamine receptor 6 (P31388 whole entry): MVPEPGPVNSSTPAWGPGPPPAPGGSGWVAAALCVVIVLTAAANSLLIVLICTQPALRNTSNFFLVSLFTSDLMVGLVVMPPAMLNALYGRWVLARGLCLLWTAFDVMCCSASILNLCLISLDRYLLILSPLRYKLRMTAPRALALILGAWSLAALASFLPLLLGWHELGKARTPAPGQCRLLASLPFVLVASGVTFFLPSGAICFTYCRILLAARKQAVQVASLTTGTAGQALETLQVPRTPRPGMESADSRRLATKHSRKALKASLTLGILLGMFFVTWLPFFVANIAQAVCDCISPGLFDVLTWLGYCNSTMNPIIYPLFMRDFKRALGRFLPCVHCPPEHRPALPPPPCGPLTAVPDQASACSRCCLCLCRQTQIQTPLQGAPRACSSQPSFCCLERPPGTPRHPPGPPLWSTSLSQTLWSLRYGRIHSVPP

[11] = target: Muscarinic acetylcholine receptor M5 (Rattus norvegicus, UniProt P08911)
Sequence of Muscarinic acetylcholine receptor M5 (P08911 whole entry): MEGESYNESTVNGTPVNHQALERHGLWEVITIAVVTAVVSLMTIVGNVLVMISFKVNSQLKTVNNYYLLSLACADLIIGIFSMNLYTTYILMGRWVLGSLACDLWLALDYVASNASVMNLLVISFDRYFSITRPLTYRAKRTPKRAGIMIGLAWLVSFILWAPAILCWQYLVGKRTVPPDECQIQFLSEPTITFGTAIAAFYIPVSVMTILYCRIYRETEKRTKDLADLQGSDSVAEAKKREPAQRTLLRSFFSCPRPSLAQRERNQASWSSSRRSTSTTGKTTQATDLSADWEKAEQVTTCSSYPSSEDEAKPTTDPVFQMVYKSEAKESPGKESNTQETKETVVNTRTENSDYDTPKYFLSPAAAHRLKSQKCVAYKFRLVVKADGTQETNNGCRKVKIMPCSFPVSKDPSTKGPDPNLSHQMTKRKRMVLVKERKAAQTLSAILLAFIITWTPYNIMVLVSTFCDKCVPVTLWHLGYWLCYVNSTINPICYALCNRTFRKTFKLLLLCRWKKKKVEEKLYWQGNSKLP

[12] = target: Alpha-2C adrenergic receptor (Rattus norvegicus, UniProt P22086)
[13] = target: Amine oxidase [flavin-containing] B (Rattus norvegicus, UniProt P19643)
Substance-K receptor = Substance-K receptor (Rattus norvegicus, UniProt P16610)
Endothelin-1 receptor = Endothelin-1 receptor (Rattus norvegicus, UniProt P26684)
[14] = target: Alpha-1A adrenergic receptor (Rattus norvegicus, UniProt P43140)
5'-nucleotidase = 5'-nucleotidase (Rattus norvegicus, UniProt P21588)
Sequence of 5'-nucleotidase (P21588 whole entry): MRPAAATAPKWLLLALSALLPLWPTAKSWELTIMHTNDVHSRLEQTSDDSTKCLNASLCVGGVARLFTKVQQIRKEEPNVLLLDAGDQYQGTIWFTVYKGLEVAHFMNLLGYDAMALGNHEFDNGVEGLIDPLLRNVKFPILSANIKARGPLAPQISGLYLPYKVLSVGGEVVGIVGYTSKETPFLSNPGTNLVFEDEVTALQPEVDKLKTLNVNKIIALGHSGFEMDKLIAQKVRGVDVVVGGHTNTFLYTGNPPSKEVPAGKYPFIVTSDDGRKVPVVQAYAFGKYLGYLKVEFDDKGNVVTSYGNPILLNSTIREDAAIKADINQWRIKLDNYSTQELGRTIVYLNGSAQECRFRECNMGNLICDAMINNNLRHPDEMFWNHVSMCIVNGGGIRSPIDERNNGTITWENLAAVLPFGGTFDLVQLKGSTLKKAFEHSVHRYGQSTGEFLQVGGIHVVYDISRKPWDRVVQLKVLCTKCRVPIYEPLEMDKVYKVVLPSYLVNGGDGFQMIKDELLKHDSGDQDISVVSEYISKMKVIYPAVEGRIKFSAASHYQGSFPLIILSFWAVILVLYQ

Cannabinoid receptor 1 = Cannabinoid receptor 1 (Rattus norvegicus, UniProt P20272)
Substance-P receptor = Substance-P receptor (Rattus norvegicus, UniProt P14600)
Sequence of Substance-P receptor (P14600 whole entry): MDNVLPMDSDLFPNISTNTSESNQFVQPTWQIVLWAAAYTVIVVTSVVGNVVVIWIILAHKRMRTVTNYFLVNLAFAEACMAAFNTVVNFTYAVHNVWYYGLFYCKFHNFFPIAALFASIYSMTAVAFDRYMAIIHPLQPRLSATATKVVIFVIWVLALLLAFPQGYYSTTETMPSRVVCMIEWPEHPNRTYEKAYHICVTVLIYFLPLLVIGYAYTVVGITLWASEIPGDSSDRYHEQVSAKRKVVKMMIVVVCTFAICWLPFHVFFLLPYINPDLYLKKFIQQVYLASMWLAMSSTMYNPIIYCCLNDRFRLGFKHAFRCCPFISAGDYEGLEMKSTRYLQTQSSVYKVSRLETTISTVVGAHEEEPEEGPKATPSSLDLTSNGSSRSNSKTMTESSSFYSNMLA

[15] = target: Chloride channel protein 1 (Rattus norvegicus, UniProt P35524)
Sequence of Chloride channel protein 1 (P35524 whole entry): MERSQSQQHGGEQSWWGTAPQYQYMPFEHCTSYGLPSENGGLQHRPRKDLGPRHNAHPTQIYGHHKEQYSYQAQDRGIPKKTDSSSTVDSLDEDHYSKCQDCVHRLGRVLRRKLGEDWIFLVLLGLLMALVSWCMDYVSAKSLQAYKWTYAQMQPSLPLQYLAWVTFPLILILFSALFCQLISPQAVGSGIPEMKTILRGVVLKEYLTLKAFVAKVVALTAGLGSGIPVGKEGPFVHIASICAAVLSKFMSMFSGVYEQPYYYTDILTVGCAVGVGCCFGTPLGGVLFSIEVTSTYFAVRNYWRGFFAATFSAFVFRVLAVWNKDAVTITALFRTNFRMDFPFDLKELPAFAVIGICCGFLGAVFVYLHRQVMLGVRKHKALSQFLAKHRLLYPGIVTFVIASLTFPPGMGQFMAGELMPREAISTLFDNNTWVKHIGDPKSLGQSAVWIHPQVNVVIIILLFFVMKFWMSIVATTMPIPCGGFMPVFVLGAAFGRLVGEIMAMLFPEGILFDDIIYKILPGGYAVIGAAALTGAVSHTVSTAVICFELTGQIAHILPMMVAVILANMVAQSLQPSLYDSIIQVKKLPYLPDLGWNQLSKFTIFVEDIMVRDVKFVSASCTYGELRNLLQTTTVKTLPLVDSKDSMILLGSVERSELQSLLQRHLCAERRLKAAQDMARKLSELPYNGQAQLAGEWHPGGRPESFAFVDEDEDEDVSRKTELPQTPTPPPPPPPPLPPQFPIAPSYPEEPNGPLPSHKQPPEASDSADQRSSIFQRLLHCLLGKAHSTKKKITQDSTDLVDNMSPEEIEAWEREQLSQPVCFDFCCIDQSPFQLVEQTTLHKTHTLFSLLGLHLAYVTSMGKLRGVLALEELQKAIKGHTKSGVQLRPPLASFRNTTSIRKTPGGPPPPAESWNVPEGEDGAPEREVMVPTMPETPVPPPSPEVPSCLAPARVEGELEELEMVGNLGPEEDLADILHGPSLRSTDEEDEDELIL

D(3) dopamine receptor = D(3) dopamine receptor (Rattus norvegicus, UniProt P19020)
Histamine H2 receptor = Histamine H2 receptor (Rattus norvegicus, UniProt P25102)
[16] = target: 5-hydroxytryptamine receptor 7 (Rattus norvegicus, UniProt P32305)
Sequence of 5-hydroxytryptamine receptor 7 (P32305 whole entry): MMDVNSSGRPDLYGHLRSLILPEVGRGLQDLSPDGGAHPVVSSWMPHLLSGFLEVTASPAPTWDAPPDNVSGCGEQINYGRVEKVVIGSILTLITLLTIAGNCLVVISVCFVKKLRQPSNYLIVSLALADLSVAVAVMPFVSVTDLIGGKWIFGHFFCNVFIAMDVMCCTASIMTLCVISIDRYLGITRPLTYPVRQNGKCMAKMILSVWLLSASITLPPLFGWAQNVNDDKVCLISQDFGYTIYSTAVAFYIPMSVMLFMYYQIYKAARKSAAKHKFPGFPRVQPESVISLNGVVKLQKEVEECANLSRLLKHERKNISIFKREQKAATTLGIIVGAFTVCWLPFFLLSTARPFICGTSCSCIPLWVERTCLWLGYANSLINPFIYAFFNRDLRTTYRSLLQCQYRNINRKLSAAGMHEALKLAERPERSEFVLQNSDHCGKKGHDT

[17] = target: Kappa-type opioid receptor (Rattus norvegicus, UniProt P34975)
Vasopressin V1a receptor = Vasopressin V1a receptor (Rattus norvegicus, UniProt P30560)
[18] = target: Melatonin receptor type 1A (Rattus norvegicus, UniProt P49218)
[19] = target: Neuropeptide Y receptor type 2 (Rattus norvegicus, UniProt Q9ERC0)
[20] = target: Prostaglandin G/H synthase 2 (Rattus norvegicus, UniProt P35355)
Sequence of Prostaglandin G/H synthase 2 (P35355 whole entry): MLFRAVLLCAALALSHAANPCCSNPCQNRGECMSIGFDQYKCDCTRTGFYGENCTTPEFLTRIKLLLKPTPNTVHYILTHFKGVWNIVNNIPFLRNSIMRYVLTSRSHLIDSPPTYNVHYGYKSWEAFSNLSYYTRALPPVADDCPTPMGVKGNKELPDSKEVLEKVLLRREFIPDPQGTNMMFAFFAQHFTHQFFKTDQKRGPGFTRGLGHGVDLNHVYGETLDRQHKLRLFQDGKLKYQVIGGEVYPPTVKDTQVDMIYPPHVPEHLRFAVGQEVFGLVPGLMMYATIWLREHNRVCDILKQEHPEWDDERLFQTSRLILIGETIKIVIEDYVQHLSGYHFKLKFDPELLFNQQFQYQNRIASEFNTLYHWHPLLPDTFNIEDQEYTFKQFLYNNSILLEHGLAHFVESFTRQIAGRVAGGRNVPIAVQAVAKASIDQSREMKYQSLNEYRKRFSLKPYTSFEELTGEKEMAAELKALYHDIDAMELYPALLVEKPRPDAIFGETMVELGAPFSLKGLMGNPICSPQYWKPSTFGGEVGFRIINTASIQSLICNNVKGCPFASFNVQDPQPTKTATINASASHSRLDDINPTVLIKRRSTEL

D(2) dopamine receptor = D(2) dopamine receptor (Rattus norvegicus, UniProt P61169)
Cannabinoid receptor 2 = Cannabinoid receptor 2 (Rattus norvegicus, UniProt Q9QZN9)
[21] = target: 5-hydroxytryptamine receptor 3A (Rattus norvegicus, UniProt P35563)
[22] = target: Norepinephrine transporter (Rattus norvegicus, UniProt Q9JIA2)
[23] = target: 5-hydroxytryptamine receptor 5A (Rattus norvegicus, UniProt P35364)

Sequence of Vasopressin V2 receptor (Q00788 whole entry): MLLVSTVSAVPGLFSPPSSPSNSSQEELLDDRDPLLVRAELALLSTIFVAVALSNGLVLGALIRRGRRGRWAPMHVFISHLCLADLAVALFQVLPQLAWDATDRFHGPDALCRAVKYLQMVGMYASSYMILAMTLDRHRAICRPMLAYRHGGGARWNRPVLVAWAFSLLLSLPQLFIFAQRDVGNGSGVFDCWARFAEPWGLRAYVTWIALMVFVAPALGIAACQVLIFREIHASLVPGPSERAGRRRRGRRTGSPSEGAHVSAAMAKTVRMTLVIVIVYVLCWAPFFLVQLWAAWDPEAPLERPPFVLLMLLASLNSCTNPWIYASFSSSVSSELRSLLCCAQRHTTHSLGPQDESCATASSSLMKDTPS

## Nc1ncnc2nc(-c3ccc(N4CCOCC4)nc3)cc(-c3cccc(Br)c3)c12
Pro-neuropeptide Y
  Ki: > 10 µM
Vasopressin V2 receptor
  Ki: > 10 µM
[1]
  Ki: > 10 µM
[2]
  Ki: > 10 µM
[3]
  Ki: > 10 µM
[4]
  Ki: > 10 µM
D(4) dopamine receptor
  Ki: > 10 µM
Interleukin-1 alpha
  Ki: > 10 µM
[5]
  Ki: > 10 µM
[6]
  Ki: > 10 µM
[7]
  Ki: > 10 µM
Galanin peptides
  Ki: > 10 µM
[8]
  Ki: > 10 µM
Prostacyclin receptor
  Ki: > 10 µM
Thromboxane A2 receptor
  Ki: > 10 µM
[9]
  Ki: > 10 µM
[10]
  Ki: > 10 µM
[11]
  Ki: > 10 µM
[12]
  Ki: > 10 µM
[13]
  Ki: > 10 µM
Substance-K receptor
  Ki: 8.56 µM
Endothelin-1 receptor
  Ki: > 10 µM
[14]
  Ki: > 10 µM
5'-nucleotidase
  Ki: > 10 µM
Cannabinoid receptor 1
  Ki: > 10 µM
Substance-P receptor
  Ki: > 10 µM
[15]
  Ki: > 10 µM
D(3) dopamine receptor
  Ki: > 10 µM
Histamine H2 receptor
  Ki: > 10 µM
[16]
  Ki: > 10 µM
[17]
  Ki: 4.6 µM
Vasopressin V1a receptor
  Ki: > 10 µM
[18]
  Ki: > 10 µM
[19]
  Ki: > 10 µM
[20]
  Ki: > 10 µM
D(2) dopamine receptor
  Ki: > 10 µM
Cannabinoid receptor 2
  Ki: > 10 µM
[21]
  Ki: > 10 µM
[22]
  Ki: > 10 µM
[23]
  Ki: > 10 µM
